Read-outs that look alike come from different tables or passages of the source. Marks after values point to notes of the source that are not given here.
Columns and labels:
HIV-1 [1] = settings: H9 cells; for Day 7 RT HIV-1 / Day 10 RT HIV-1: 100 μM; for HIV-1 infection, result in words: summary of Experiments 1-5
Text: (§1) In this example, the methods that were used to analyze the ability of various tripeptides to inhibit HIV-1, HIV-2, and SIV replication are disclosed. In Experiments 1 and 2, approximately 200,000 H9 cells were infected with HIV-1, HIV-2 or SIV at 25 TCID50 to test the inhibitory effect of the following synthesized tripeptides LKA-NH2, ILK-NH2, GPQ-NH2, GHK-NH2, GKG-NH2, ACQ-NH2, CQG-NH2, ARV-NH2, KAR-NH2, HKA-NH2, GAT-NH2, KAL-NH2, and GPG-NH2. Accordingly, the H9 cells were resuspended with or without the different peptides (approximately 100 μM) in 1 ml of RPMI 1640 medium supplemented with 10% (v/v) heat-inactivated fetal bovine serum (FBS), penicillin (100 u/ml), and streptomycin (100 u/ml), all available through GIBCO, and Polybrene (2 μg/ml), available through Sigma. Thereafter, viruses were added at 25 TCID50 in a volume of 20-30μl. Cells were incubated with virus at 37° C. for 1 hr then pelleted at 170×g for 7 minutes. The cells were then washed three times in RPMI medium without peptides at room temperature and pelleted at 170×g for 7 minutes, as above. After the final wash, the cells were resuspended in RPMI culture medium containing the peptides in a 24-well plate (Costar corporation) and were kept at 37° C. in 5% CO2 with humidity.
(§2) Culture supernatants were collected and analyzed when the medium was changed at 4, 7, 10, and 14 days post infection. To monitor the replication of virus, reverse transcriptase (RT) activity in the supernatants was assayed using a commercially available Lenti-RT activity kit. (Cavidi Tech, Uppsala, Sweden). The amount of RT was determined with the aid of a regression line of standards. The results are presented as absorbance values (OD) and higher absorbance indicates a higher protein concentration and greater viral infection. Syncytium formation was also monitored by microscopic examination.
In Experiment 3, (Table 4), approximately 200,000 H9 cells were infected with HIV-1, HIV-2 or SIV at 25 TCID50 to test the inhibitory effect of different concentrations of peptides GPG-NH2, GKG-NH2 and CQG-NH2 and combinations of these peptides (the indicated concentration corresponds to the concentration of each tripeptide). As above, H9 cells were resuspended with or without the different peptides at varying concentrations in 1 ml of RPMI 1640 medium supplemented with 10% (v/v) heat-inactivated fetal bovine serum (FBS), penicillin (100 u/ml), and streptomycin (100 u/ml), and Polybrene (2 μg/ml). Thereafter, viruses were added at 25 TCID50 in a volume of 20-30 μl. Cells were incubated with the indicated virus at 37° C. for 1 hr then pelleted at 170×g for 7 minutes. The cells were then washed three times in RPMI medium without peptides at room temperature and pelleted at 170×g for 7 minutes, as above. After the final wash, the cells were resuspended in RPMI culture medium containing the peptides in a 24-well plate (Costar corporation) and kept at 37° C. in 5% CO2 with humidity.
Culture supernatants were collected when the medium was changed at 4, 7, and 11 days post infection. As above, the replication of each virus was monitored by detecting reverse transcriptase (RT) activity in the supernatants using the Lenti-RT activity kit. (Cavidi Tech). The amount of RT was determined with the aid of a regression line of standards. The results are presented as absorbance values (OD) and higher absorbance indicates a higher protein concentration and greater viral infection.
In Experiment 4, (Table 5) approximately 200,000 H9 cells were infected with HIV-1 at 25 TCID50 to test the inhibitory effect of different concentrations of peptides GPG-NH2, GKG-NH2 and CQG-NH2 and combinations of these peptides (the indicated concentration corresponds to the total concentration of tripeptide).

SIV = SIV infectivity assay in H9 cells, RT activity in supernatant; format: cell-based
HIV-2 = HIV-2 infectivity assay in H9 cells, RT activity in supernatant; format: cell-based
HIV-1 [2] = settings: H9 cells; for HIV-1 Syncytia: 100 μM
Text: as §1, §2

| Substance | Day 7 RT HIV-1 (HIV-1 [1]; Experiment 1) | Day 10 RT HIV-1 (HIV-1 [1]; Experiment 1) [OD] | Day 7 RT HIV-1 (HIV-1 [1]; Experiment 2) | Day 10 RT HIV-1 (HIV-1 [1]; Experiment 2) [OD] | HIV-1 infection, result in words (HIV-1 [1]) | Day 7 RT SIV (SIV; Experiment 1, 100 μM) [OD] | Day 10 RT SIV (SIV; Experiment 1, 100 μM) [OD] | Day 7 RT SIV (SIV; Experiment 2, 100 μM) [OD] | Day 10 RT SIV (SIV; Experiment 2, 100 μM) [OD] | Day 7 RT HIV-2 (HIV-2; Experiment 1, 100 μM) [OD] | Day 10 RT HIV-2 (HIV-2; Experiment 1, 100 μM) [OD] | Day 7 RT HIV-2 (HIV-2; Experiment 2, 100 μM) [OD] | Day 10 RT HIV-2 (HIV-2; Experiment 2, 100 μM) [OD] | HIV-1 Syncytia (HIV-1 [2]; Experiment 1) | HIV-1 Syncytia (HIV-1 [2]; Experiment 2) | HIV-1 syncytia formation, result in words (HIV-1 [2]; summary of Experiments 1-2) |
| --- | --- | --- | --- | --- | --- | --- | --- | --- | --- | --- | --- | --- | --- | --- | --- | --- |
| Gly-Pro-Gln [GPQ-NH2] | 0.204 OD | 1.965 | 0.884 OD | 2.848 | did not prevent HIV infection | 1.542 | 2.176 | 0.574 | 2.319 | 3.692 | 2.734 | 1.511 | 2.382 | pos | pos | failed to prevent infection and HIV-1 syncytia formation |
| His-Lys-Ala [HKA-NH2] | 0.312 OD | 2.546 | 1.081 OD | 2.794 | did not prevent HIV infection | 0.416 | 2.520 | 0.455 | 2.623 | 3.408 | 2.669 | 1.678 | 2.560 | pos | pos |  |
| Iso-Leu-Lys [ILK-NH2] | 0.365 OD | 2.033 | 0.581 OD | 2.950 |  | 3.180 | 2.255 | 0.515 | 2.632 | 3.467 | 2.791 | 1.692 | 2.557 | pos | pos |  |
| Leu-Lys-Ala [LKA-NH2] | 0.568* OD | 2.429 | 0.894* OD | 2.989 | did not prevent HIV infection | 3.577 | 2.452 | 0.724 | 2.797 | 3.649 | 2.769 | 1.689 | 2.637 | pos | pos |  |
| Lys-Ala-Arg [KAR-NH2] | 0.380 OD | 2.779 | 0.753 OD | 2.928 |  | 0.266 | 1.722 | 1.034 | 2.672 | 3.419 | 2.640 | 1.904 | 2.742 | pos | pos |  |
| Lys-Ala-Leu [KAL-NH2] | 0.246 OD | 1.995 | 0.999 OD | 2.791 | failed to prevent infection | 1.091 | 2.524 | 0.511 | 2.663 | 3.372 | 2.749 | 1.757 | 2.383 | pos | pos |  |

— patent publication US20020091086A1, “Peptides that block viral infectivity and methods of use thereof” (priority 1999, published 2002)
